Laboratory results taken from ChEMBL document CHEMBL4325862, “Identification of novel quinazoline derivatives as potent antiplasmodial agents” (Eur J Med Chem, 2019).

Key:
[1] = test system: Plasmodium falciparum; assay: Antiplasmodial activity against asynchronous form of Plasmodium falciparum 3D7 infected in human erythrocytes assessed as parasite growth inhibition at 10 uM after 48 hrs by SYBR green1 staining based flow cytometry relative to control; format: functional; conditions: 3D7, 48 h
[2] = test system: Plasmodium falciparum; assay: Antiplasmodial activity against asynchronous form of Plasmodium falciparum 3D7 infected in human erythrocytes assessed as parasite growth inhibition after 48 hrs by SYBR green1 staining based flow cytometry; format: functional, organism-based; conditions: 3D7, 48 h
[3] = target: DNA (cytosine-5)-methyltransferase 3A (Homo sapiens, UniProt Q9Y6K1); assay: Inhibition of recombinant human DNMT3a C-terminal catalytic domain (623 to 908 residues) using 5'-biotinylated/3'-FAM-oligonucleotide as substrate measured after 1 hr in presence of Adomet by fluorescence assay
[4] = target: DNA (cytosine-5)-methyltransferase 1 (Homo sapiens, UniProt P26358); assay: Inhibition of recombinant human DNMT1 using biotinylated DNA duplex as substrate measured after 2 hrs in presence of Adomet/[methyl-3H]Adomet by topcount method
[5] = target: Histone deacetylase 4 (Homo sapiens, UniProt P56524); assay: Inhibition of recombinant human HDAC4 using Boc-Lys(trifluoroacetyl)-AMC as substrate by homogeneous fluorescence release assay
[6] = target: Histone deacetylase 1 (Homo sapiens, UniProt Q13547); assay: Inhibition of recombinant human HDAC1 using RHK-K(Ac) as substrate by homogeneous fluorescence release assay
[7] = target: T1, Protein deacetylase HDAC6 (Homo sapiens, UniProt Q9UBN7); assay: Inhibition of recombinant human HDAC6 using RHK-K(Ac) as substrate by homogeneous fluorescence release assay
T1 sequence (Q9UBN7 whole entry): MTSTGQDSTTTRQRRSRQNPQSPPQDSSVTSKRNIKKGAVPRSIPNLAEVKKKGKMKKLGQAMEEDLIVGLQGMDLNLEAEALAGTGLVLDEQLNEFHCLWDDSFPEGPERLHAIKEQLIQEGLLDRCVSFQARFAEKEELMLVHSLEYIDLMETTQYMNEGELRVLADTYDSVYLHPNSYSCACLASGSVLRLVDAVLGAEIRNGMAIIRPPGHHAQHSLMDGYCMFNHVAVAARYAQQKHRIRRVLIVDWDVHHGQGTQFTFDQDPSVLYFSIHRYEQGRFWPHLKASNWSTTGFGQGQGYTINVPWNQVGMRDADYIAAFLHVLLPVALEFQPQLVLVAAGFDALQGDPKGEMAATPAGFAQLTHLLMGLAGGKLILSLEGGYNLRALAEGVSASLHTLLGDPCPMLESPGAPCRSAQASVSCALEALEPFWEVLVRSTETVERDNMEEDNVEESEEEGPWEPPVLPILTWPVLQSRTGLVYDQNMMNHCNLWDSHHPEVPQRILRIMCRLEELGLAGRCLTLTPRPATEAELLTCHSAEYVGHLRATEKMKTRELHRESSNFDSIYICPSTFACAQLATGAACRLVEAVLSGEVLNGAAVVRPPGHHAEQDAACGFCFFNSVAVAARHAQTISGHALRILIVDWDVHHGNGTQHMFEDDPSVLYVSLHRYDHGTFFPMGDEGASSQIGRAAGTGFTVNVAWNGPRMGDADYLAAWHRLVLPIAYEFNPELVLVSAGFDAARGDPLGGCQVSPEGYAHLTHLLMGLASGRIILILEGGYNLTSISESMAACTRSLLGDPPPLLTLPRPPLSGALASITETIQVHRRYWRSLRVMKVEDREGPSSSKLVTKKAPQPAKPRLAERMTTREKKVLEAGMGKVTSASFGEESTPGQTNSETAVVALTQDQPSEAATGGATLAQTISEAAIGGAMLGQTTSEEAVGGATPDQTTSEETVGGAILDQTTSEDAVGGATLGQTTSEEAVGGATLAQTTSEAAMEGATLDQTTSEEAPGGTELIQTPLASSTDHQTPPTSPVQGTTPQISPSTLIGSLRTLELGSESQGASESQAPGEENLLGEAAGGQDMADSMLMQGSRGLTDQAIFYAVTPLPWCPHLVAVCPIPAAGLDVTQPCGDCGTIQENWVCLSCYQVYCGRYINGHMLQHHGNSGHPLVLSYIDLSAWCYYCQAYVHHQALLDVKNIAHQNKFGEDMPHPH

[8] = Selectivity index, ratio of IC50 for mouse spleen cells to IC50 for asynchronous form of Plasmodium falciparum 3D7 infected in human erythrocytes; format: toxicity, cell-based; conditions: read-out: Ratio IC50
[9] = test system: Plasmodium falciparum; assay: Antiplasmodial activity against Plasmodium falciparum Dd2 infected in human erythrocytes assessed as reduction in [3H]-hypoxanthine incorporation measured after 48 hrs by microbeta liquid scintillation counting method; format: functional, organism-based
[10] = test system: Plasmodium falciparum; assay: Antiplasmodial activity against asynchronous form of Plasmodium falciparum W2 infected in human erythrocytes assessed as parasite growth inhibition after 48 hrs by SYBR green1 staining based flow cytometry; format: functional, organism-based; conditions: W2, 48 h
[11] = Cytotoxicity against mouse spleen cells; format: cell-based
[12] = test system: HFF; assay: Cytotoxicity against HFF; format: cell-based; conditions: Homo sapiens

Histone deacetylase 4, sequence (P56524 whole entry): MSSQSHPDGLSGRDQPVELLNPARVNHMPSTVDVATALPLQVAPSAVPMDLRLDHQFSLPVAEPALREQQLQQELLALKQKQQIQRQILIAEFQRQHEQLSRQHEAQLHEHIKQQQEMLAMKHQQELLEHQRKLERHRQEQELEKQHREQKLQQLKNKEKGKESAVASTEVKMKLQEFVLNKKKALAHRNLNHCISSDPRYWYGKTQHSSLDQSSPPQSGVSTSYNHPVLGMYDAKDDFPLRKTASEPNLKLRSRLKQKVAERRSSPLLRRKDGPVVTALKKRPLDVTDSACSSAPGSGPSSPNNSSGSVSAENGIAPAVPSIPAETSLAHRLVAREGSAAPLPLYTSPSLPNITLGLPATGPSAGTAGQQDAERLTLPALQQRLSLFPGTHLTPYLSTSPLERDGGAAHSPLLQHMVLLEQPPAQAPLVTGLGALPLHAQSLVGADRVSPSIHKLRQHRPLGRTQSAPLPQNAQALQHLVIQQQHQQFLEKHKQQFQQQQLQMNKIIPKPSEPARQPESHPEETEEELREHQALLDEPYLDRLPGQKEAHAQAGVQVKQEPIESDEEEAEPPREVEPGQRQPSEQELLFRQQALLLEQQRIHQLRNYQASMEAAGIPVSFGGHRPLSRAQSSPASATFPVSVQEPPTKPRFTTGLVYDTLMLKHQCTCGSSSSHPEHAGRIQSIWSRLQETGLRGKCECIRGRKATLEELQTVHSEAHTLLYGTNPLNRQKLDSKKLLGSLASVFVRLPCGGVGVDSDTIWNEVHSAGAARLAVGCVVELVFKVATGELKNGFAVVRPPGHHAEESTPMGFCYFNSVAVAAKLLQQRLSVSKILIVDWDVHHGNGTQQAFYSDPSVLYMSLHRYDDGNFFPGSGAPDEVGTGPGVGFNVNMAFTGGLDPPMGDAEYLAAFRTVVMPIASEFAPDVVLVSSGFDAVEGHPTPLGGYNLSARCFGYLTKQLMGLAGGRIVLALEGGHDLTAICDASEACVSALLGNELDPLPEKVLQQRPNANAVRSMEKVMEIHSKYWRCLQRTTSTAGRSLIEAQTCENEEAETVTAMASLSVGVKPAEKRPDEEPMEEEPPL
Histone deacetylase 1, sequence (Q13547 whole entry): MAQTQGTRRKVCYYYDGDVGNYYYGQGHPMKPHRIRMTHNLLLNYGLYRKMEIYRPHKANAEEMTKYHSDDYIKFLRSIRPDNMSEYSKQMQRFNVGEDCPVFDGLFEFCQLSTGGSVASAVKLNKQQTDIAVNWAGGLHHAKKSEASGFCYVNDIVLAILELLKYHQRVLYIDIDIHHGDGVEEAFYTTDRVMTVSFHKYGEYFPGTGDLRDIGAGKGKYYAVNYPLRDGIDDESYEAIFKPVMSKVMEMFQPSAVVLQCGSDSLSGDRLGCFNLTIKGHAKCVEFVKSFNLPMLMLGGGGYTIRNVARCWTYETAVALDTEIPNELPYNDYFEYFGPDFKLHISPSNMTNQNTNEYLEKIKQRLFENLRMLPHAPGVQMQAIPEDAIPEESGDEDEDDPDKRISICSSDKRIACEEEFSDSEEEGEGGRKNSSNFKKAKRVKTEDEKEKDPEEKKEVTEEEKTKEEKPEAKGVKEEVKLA
DNA (cytosine-5)-methyltransferase 3A, sequence (Q9Y6K1 whole entry, looked up, the tested form may be a part): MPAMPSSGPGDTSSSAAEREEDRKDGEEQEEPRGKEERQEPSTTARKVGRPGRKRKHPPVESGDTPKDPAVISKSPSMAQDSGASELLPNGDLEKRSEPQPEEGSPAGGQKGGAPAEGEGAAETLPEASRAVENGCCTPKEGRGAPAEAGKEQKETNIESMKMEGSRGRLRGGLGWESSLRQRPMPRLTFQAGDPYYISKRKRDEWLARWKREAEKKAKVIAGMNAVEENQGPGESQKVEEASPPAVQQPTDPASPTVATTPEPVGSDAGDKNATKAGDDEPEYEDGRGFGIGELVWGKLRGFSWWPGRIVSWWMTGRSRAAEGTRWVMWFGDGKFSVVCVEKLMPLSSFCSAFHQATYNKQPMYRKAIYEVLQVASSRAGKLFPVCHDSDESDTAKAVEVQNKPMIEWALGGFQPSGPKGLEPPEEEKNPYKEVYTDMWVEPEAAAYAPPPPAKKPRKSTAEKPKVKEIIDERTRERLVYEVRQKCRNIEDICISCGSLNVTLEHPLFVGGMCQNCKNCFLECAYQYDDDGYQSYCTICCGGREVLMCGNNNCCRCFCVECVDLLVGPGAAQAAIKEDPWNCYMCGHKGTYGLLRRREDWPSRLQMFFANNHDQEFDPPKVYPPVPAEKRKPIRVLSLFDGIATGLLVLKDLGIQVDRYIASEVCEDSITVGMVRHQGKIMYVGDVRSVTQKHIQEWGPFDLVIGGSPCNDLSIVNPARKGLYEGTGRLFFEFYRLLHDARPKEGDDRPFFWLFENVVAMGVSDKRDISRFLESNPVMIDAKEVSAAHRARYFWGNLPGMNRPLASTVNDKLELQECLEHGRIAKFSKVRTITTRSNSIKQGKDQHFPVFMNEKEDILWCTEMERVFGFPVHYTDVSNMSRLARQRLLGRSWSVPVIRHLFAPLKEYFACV
DNA (cytosine-5)-methyltransferase 1, sequence (P26358 whole entry): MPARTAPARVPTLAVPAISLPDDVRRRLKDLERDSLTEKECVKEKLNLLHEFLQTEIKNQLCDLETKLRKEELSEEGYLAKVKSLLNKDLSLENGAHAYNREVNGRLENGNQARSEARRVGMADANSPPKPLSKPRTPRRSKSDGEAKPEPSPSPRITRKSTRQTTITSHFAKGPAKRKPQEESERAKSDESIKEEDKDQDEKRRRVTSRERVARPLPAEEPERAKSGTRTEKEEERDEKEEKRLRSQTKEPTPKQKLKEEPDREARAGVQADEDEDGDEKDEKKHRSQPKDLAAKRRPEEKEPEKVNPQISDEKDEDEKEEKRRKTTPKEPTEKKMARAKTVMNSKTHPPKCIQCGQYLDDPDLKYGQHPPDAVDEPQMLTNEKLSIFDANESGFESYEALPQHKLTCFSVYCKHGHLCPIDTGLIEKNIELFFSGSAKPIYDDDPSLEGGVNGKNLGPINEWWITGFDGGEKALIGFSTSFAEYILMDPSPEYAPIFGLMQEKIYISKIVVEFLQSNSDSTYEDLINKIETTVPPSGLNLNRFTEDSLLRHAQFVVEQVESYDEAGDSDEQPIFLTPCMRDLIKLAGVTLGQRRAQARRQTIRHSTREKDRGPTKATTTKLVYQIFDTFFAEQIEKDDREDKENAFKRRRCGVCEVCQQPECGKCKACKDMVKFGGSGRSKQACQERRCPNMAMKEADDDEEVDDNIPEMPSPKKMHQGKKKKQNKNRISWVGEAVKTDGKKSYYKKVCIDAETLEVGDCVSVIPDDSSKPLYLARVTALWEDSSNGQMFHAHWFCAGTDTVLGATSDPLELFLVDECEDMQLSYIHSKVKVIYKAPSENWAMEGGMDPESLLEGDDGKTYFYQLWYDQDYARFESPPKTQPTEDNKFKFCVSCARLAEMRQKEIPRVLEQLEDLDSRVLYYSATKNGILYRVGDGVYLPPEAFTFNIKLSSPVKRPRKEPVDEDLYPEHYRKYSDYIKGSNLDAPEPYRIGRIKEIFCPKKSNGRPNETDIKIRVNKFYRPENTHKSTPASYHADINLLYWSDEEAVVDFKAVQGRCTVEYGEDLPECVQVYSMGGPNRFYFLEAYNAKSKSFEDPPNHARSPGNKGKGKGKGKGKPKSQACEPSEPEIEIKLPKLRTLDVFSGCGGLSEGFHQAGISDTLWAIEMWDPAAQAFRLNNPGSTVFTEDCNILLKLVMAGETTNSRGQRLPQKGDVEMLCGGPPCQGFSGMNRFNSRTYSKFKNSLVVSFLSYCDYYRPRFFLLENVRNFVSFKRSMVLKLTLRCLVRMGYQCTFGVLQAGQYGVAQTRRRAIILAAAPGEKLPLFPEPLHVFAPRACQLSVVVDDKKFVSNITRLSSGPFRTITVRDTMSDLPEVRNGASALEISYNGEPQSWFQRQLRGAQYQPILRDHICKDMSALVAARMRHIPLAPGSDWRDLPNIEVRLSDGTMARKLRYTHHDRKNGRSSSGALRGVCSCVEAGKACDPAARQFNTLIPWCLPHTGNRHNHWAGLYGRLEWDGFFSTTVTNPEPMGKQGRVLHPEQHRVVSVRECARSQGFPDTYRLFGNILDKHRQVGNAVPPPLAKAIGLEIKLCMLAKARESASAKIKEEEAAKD

Row | Structure (SMILES) | inhibition at 10 µM [1] | IC50 [2] | also measured
1 | CC(C)(C)OC(=O)Nc1cccc(C(=O)/C=C/c2ccc(/C=C/C(=O)NO)cc2)c1 | 100% | 422 nM | 
2 | NC1CC1c1ccc(NC(=O)[C@H](Cc2ccccc2)NC(=O)OCc2ccccc2)cc1 (stereo partly drawn) | 64.6% | > 1000 nM | 
3 | COc1ccc2nc(N3CCN(c4ccccc4)CC3)nc(NC3CCN(Cc4ccccc4)CC3)c2c1 | 100% | 52.5 nM | EC50 [3]: 5400 nM; EC50 [4]: > 100000 nM
4 | O=C(CCCCSc1nc(-c2ccc3ccccc3c2)cc(=O)[nH]1)NO | 97.9% | 25.2 nM | IC50 [5]: > 50000 nM; IC50 [6]: 1700 nM; IC50 [7]: 12 nM
5 | CC1=C(/C=C/C(C)=C/C=C/C(C)=C/C(=O)Nc2ccccc2N)C(C)(C)CCC1 | 97.1% | > 1000 nM | 
6 | COc1cc2c(NC3CCN(C(C)C)CC3)nc(C3CCCCC3)nc2cc1OCCCN1CCCC1 | 100% | 67.9 to 68.7 nM | selectivity ratio [8]: 21; IC50 [9]: 16.8 nM; IC50 [10]: 38.5 nM; IC50 [11]: 1440 nM; IC50 [12]: 2290 nM
7 | CCOC(=O)C1=CN(Cc2ccccc2)C=C(C(=O)OCC)C1c1ccccc1 | 97.2% | > 1000 nM | 
8 | O=C(CCCCSc1nc(-c2ccc(Cl)cc2)cc(=O)[nH]1)NO | 98% | 88.6 nM | 
9 | Cn1c(/C=C/C(=O)NO)ccc1/C=C/C(=O)c1cccc(Cl)c1 | 89.6% | > 1000 nM | 
10 | Nc1ccccc1NC(=O)c1ccc(CNC(=O)OCc2cccnc2)cc1 [ENTINOSTAT] | 50.9% | > 1000 nM | 
11 | CCOC(=O)c1c(C)nc2ccccc2c1O | 60.1% | > 1000 nM | 
12 | O=C(Cc1ccccc1)Nc1ccc(C(=O)NO)nc1 | 97.8% | > 1000 nM | IC50 [5]: 11000 nM; IC50 [6]: 200 nM; IC50 [7]: 37 nM
13 | O=C(CCCCCSc1nc(-c2ccc(-c3ccccc3)cc2)cc(=O)[nH]1)NO | 97.4% | 50.9 nM | IC50 [5]: > 50000 nM; IC50 [6]: 100 nM; IC50 [7]: 9 nM
14 | c1ccc(CCCN2CCC(Nc3nc(N4CCN(c5ccccc5)CC4)nc4ccccc34)CC2)cc1 | 100% | 75.1 nM | EC50 [3]: 5100 nM; EC50 [4]: > 100000 nM
15 | O=c1nc2oc3ccc4ccccc4c3cc-2c(=O)n1-c1ccccc1 | 80.5% | > 1000 nM | 
16 | O=S(=O)(c1cccc(C(F)(F)F)c1)N1c2ccccc2-n2cccc2C1c1cccnc1 (stereo not drawn) | 99.5% | 671 nM | 
17 | c1ccc(CN2CCC(Nc3nc(N4CCN(c5ccccc5)CC4)nc4ccccc34)CC2)cc1 | 100% | 326 nM | 
18 | O=C(Cc1cccc2ccccc12)Nc1ccc(C(=O)NO)nc1 | 97.9% | > 1000 nM | IC50 [5]: > 50000 nM; IC50 [6]: 300 nM; IC50 [7]: 26 nM
19 | O=C1/C(=C/c2ccc(O)c(Br)c2)CN(Cc2ccccc2)C/C1=C\c1ccc(O)c(Br)c1 | 100% | > 1000 nM | 
20 | NC1CC1c1ccc(NC(=O)CCCCNC(=O)c2ccc(O)c3ncccc23)cc1 (stereo not drawn) | 97.8% | > 1000 nM | 
21 | COc1cc2nc(N3CCCN(C)CC3)nc(NC3CCN(Cc4ccccc4)CC3)c2cc1OC | 100% | 20.8 to 23.7 nM | selectivity ratio [8]: 23; IC50 [9]: 9.7 nM; IC50 [10]: 16.7 nM; IC50 [11]: 555 nM; IC50 [12]: 5000 nM
